Here are results for three compounds from publication PMC8199471, “Identification, Characterization and Antihypertensive Effect In Vivo of a Novel ACE-Inhibitory Heptapeptide from Defatted Areca Nut Kernel Globulin Hydrolysates” (Molecules, 2021).

Ends that are not written are not given here.

Assay [1] relates to spontaneously hypertensive rats (SHRs). As to the kind of experiment: Antihypertensive effect in vivo, tail-cuff SBP and DBP. Further details: species or system rat. The note with it: positive control, oral 14 mg/kg/body weight once daily, throughout the experiment period. As for the experimental part: The antihypertensive effect of the synthesized peptide was determined as per the same procedure described by Zheng et al.. Briefly, spontaneously hypertensive rats (SHRs, male, 12 weeks age) were purchased from VRL Animal Technology Co., Ltd. (Beijing, China). The SHRs were randomly divided into positive control group, low-, middle- and high-dosage groups, and negative control group. Each group contains four rats. […] In addition, SHRs in the negative group were orally given saline (0.9%). After an adaptation period of one week, the weight, systolic blood pressure (SBP) and diastolic blood pressure (DBP) of SHRs were measured using the tail-cuff method once week. Moreover, the animal experiment was conducted in conformity with institutional guidelines for the care and use of laboratory animals in Shanxi University of Chinese Medicine, Taiyuan, China. All the rats received human care conforming to the National Institutes of Health Guide for care and Use of Laboratory Animals (Publication No. 85-23, revised 1985).

A further assay has as its system ACE. On the set-up: method as in 2 sources, one per row (each row's own in cited_ref): ref 18 = [18]; PMID 29606478; doi:10.1016/j.foodchem.2018.02.107; 18. Tu M. Wang C. Chen C. Zhang R. Liu H. Lu W. Jiang L. Du M. Identification of a novel ACE-inhibitory peptide from casein and evaluation of the inhibitory mechanisms Food Chem. 2018 256 98 104 10.10 ||| ref 20 = [20]; PMID 30229250; doi:10.1039/C8FO00569A; 20. Ling Y. Sun L.P. Zhuang Y.L. Preparation and identification of novel inhibitory angiotensin-I-converting enzyme peptides from tilapia skin gelatin hydrolysates: Inhibition kinetics and molecular d. The note with it: peptide identified in casein protein; cited from earlier work.

In the next assay the target is T1, ACE (from rabbit lung) (Oryctolagus cuniculus, UniProt P12822).
T1 construct: ACE (from rabbit lung); purchased Sigma Co., St. Louis, MO, USA; host or cells: rabbit lung (tissue-derived)
T1 sequence (P12822 34-1310): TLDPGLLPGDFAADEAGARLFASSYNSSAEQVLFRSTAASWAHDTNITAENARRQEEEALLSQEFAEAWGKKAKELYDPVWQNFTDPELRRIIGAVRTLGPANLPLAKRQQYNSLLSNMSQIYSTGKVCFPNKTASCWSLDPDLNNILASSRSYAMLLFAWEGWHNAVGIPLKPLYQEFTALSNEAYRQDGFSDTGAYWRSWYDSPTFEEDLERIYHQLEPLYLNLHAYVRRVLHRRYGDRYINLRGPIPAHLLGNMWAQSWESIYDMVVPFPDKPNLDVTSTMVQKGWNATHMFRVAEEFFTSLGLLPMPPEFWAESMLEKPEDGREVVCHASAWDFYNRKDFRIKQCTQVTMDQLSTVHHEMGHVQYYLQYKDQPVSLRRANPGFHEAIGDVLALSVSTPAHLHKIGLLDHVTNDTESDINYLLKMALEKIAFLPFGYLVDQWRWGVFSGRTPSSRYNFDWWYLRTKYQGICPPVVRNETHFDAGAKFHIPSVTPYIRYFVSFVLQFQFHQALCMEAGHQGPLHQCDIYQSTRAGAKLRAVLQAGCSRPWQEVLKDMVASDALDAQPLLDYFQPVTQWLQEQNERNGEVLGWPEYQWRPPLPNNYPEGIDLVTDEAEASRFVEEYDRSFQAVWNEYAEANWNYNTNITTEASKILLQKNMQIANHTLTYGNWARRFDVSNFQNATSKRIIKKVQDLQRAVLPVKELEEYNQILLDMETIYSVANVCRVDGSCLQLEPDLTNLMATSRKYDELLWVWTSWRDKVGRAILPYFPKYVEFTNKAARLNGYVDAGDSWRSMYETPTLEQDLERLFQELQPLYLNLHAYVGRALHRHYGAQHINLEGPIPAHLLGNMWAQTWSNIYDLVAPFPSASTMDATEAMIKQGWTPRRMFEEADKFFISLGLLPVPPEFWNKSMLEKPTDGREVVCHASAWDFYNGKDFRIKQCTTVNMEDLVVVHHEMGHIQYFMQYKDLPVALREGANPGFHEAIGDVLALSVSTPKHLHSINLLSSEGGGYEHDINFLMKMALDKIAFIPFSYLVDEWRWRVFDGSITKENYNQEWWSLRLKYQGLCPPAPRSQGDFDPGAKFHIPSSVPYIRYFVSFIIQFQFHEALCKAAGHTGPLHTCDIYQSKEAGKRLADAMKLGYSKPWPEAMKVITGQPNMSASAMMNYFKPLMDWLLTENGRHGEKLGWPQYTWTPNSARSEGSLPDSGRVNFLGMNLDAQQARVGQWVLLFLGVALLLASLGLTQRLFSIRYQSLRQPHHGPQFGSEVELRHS
Briefly: ACE-inhibitory activity assay (HHL substrate, method of Jimsheena and Gowda). It is filed as biochemical. As to conditions: synthesized peptide; calculated from regression y = 12.464 ln(x) − 28.656. From the text:
Areca nut kernel was purchased from Sanpo Palm Ground Part Co., Haikou, China. Cellulase (from Trichoderma viride G, 3.0 × 10^5 U), trypsin (5 × 10^[…]) and alcalase (1 × 10^[…]) were purchased from Tian Keji Co., Ltd. (Tianjin, China). EA.hy926 cells were purchased from the Type Culture Collection of the Chinese Academy of Sciences, Shanghai, China. Captopril, ACE (from rabbit lung) and N-Hippuryl-His-Leu hydrate (HHL) were purchased from Sigma Co., St. Louis, MO, USA. Endothelin-1 Elisa kit was from Pensui Biotech Co. (Wuhan, China). DMEM (Dulbecco's modified Eagle's medium) were obtained from JiQing Biotech. Co., Ltd. (Nanjing, China). Other chemicals and reagents were of analytical grade and purchased from Peisu Co., Ltd. (Xi'an, China). ACE-inhibitory activity was determined using the same procedure as described by Jimsheena and Gowda. The concentration of the sample required for inhibiting 50% of ACE activity was defined as IC50 value. The ACE inhibition kinetics of peptides identified in ANKGH was analyzed by Lineweaver-Burk plots of 1/V versus 1/HHL in the presence of the inhibitor [17]. The concentrations of HHL (N-hippuryl-His-Leu hydrate) used were 0.76 to 7.60 mM.

As for `C[C@H](CS)C(=O)N1CCC[C@H]1C(=O)O` [Captopril], in assay [1], the “DBP of SHRs among all test groups” value is “lowest” and the “SBP of SHRs among all test groups” value is reported as “lowest”. Regarding NMAINPSKENLCSTFCK, the IC50 (commonly the concentration needed to halve the response being measured) in the assay on ACE was 129 µM. As to “APKIEEV [APKIEEV, Ala–Pro–Lys–Ile–Glu–Glu–Val]”, the IC50 on ACE (from rabbit lung) was 550 µM.
